Test results reported in patent US7563903B2, “Acylaminothiazole derivatives, their preparation and their therapeutic use” (Sanofi-Aventis, priority 2003, dated 2009).

SMILES	melting point
CCC[C@H](NC(=O)C(O)C(C)(C)C)C(=O)Nc1ncc(-c2ccccc2COc2c(Cl)cccc2Cl)s1 (stereo partly drawn) [compound 41, (2S)—N-(5-{2-[(2,6-dichlorophenoxy)methyl]phenyl}-1,3-thiazol-2-yl)-2-[(2-hydroxy-3,3-dimethylbutanoyl)amino]pentanamide]	126 °C
CCC[C@H](NC(=O)[C@@H](O)C(C)(C)C)C(=O)Nc1ncc(-c2ccc(OC)cc2COC(C)C)s1 [compound 44, (2S)-2-{[(2S)-2-hydroxy-3,3-dimethylbutanoyl]amino}-N-{5-[2-(isopropoxymethyl)-4-methoxyphenyl]-1,3-thiazol-2-yl}pentanamide]	79 °C
CCC[C@H](NC(=O)[C@@H](O)C(C)(C)C)C(=O)Nc1ncc(-c2ccccc2COc2c(F)cccc2F)s1 [compound 46, (2S)—N-(5-{2-[(2,6-difluorophenoxy)methyl]phenyl}-1,3-thiazol-2-yl)-2-{[(2S)-2-hydroxy-3,3-dimethylbutanoyl]amino}pentanamide]	63.5 °C
CCC[C@H](NC(=O)[C@@H](O)C(C)(C)C)C(=O)Nc1ncc(-c2ccc(Cl)cc2COc2ccccc2)s1 [compound 47, (2S)—N-{5-[4-chloro-2-(phenoxymethyl)phenyl]-1,3-thiazol-2-yl}-2-{[(2S)-2-hydroxy-3,3-dimethylbutanoyl]amino}pentanamide]	93.5 °C
CCC[C@H](NC(=O)[C@@H](O)C(C)(C)C)C(=O)Nc1ncc(-c2ccc(F)cc2COc2ccccc2)s1 [compound 48, (2S)—N-{5-[4-fluoro-2-(phenoxymethyl)phenyl]-1,3-thiazol-2-yl}-2-{[(2S)-2-hydroxy-3,3-dimethylbutanoyl]amino}pentanamide]	75.5 °C
CCC[C@H](NC(=O)[C@@H](O)C(C)C)C(=O)Nc1ncc(-c2ccc(OC)cc2COc2ccccc2)s1 [compound 49, (2S)-2-{[(2S)-2-hydroxy-3-methylbutanoyl]amino}-N-{5-[4-methoxy-2-(phenoxymethyl)phenyl]-1,3-thiazol-2-yl}pentanamide]	159.5 °C
CCC[C@H](NC(=O)[C@@H](O)CC(C)C)C(=O)Nc1ncc(-c2ccccc2COC2CCCCC2)s1 [compound 51, (2S)—N-((1S)-1-{[(5-{2-[(cyclohexyloxy)methyl]phenyl}-1,3-thiazol-2-yl)amino]carbonyl}butyl)-2-hydroxy-4-methylpentanamide]	158 °C
CCC[C@H](NC(=O)[C@@H](O)C(C)(C)C)C(=O)Nc1ncc(-c2ccc(OCC)cc2COc2ccccc2)s1 [compound 52, (2S)—N-{5-[4-ethoxy-2-(phenoxymethyl)phenyl]-1,3-thiazol-2-yl}-2-{[(2S)-2-hydroxy-3,3-dimethylbutanoyl]amino}pentanamide]	81 °C
CCC[C@H](NC(=O)[C@@H](O)C(C)C)C(=O)Nc1ncc(-c2ccc(OCC)cc2COc2ccccc2)s1 [compound 53, (2S)—N-{5-[4-ethoxy-2-(phenoxymethyl)phenyl]-1,3-thiazol-2-yl}-2-{[(2S)-2-hydroxy-3-methylbutanoyl]amino}pentanamide]	107.8 °C
CCC[C@H](NC(=O)[C@@H](O)C(C)(C)C)C(=O)Nc1ncc(-c2cc(F)ccc2COc2ccccc2)s1 [compound 54, (2S)—N-{5-[5-fluoro-2-(phenoxymethyl)phenyl]-1,3-thiazol-2-yl}-2-{[(2S)-2-hydroxy-3,3-dimethylbutanoyl]amino}pentanamide]	105.4 °C
CCC[C@H](NC(=O)[C@@H](O)C(C)(C)C)C(=O)Nc1ncc(-c2cc(Cl)ccc2COc2ccccc2)s1 [compound 55, (2S)—N-{5-[5-chloro-2-(phenoxymethyl)phenyl]-1,3-thiazol-2-yl}-2-{[(2S)-2-hydroxy-3,3-dimethylbutanoyl]amino}pentanamide]	120.7 °C
CCC[C@H](NC(=O)[C@@H](O)C(C)C)C(=O)Nc1ncc(-c2cc(F)ccc2COc2ccccc2)s1 [compound 56, (2S)—N-{5-[5-fluoro-2-(phenoxymethyl)phenyl]-1,3-thiazol-2-yl}-2-{[(2S)-2-hydroxy-3-methylbutanoyl]amino}pentanamide]	61.4 °C
CCC[C@H](NC(=O)[C@@H](O)C(C)(C)C)C(=O)Nc1ncc(-c2ccccc2COC2CCCCC2)s1 [compound 57, (2S)—N-(5-{2-[(cyclohexyloxy)methyl]phenyl}-1,3-thiazol-2-yl)-2-{[(2S)-2-hydroxy-3,3-dimethylbutanoyl]amino}pentanamide]	88 °C
C[C@H](NC(=O)[C@@H](O)C(C)(C)C)C(=O)Nc1ncc(-c2ccccc2COc2ccccc2)s1 [compound 58, (2S)-2-hydroxy-3,3-dimethyl-N-[(1S)-1-methyl-2-oxo-2-({5-[2-(phenoxymethyl)phenyl]-1,3-thiazol-2-yl}amino)ethyl]butanamide]	118.6 °C
CCC[C@H](NC(=O)[C@@H](O)C(C)(C)C)C(=O)Nc1ncc(-c2ccc(C)cc2COc2ccccc2)s1 [compound 59, (2S)-2-{[(2S)-2-hydroxy-3,3-dimethylbutanoyl]amino}-N-{5-[4methyl-2-(phenoxymethyl)phenyl]-1,3-thiazol-2-yl}pentanamide]	92.6 °C
CCC[C@H](NC(=O)[C@@H](O)C(C)C)C(=O)Nc1ncc(-c2cc(C)ccc2COc2ccccc2)s1 [compound 60, (2S)-2-{[(2S)-2-hydroxy-3-methylbutanoyl]amino}-N-{5-[5-methyl-2-(phenoxymethyl)phenyl]-1,3-thiazol-2-yl}pentanamide]	125.5 °C

Now from value to compound:

melting point	SMILES
162.6 °C	CCC[C@H](NC(=O)[C@@H](O)C(C)(C)C)C(=O)Nc1ncc(-c2ccccc2COc2cccc(C#N)c2)s1 [compound 61, (2S)—N-(5-{2-[(3-cyanophenoxy)methyl]phenyl}-1,3-thiazol-2-yl)-2-{[(2S)-2-hydroxy-3,3-dimethylbutanoyl]amino}pentanamide]
160.2 °C	CCC[C@H](NC(=O)[C@@H](O)C(C)(C)C)C(=O)Nc1ncc(-c2ccccc2COc2cccc(F)c2)s1 [compound 62, (2S)—N-(5-{2-[(3-fluorophenoxy)methyl]phenyl}-1,3-thiazol-2-yl)-2-{[(2S)-2-hydroxy-3,3-dimethylbutanoyl]amino}pentanamide]
130.7 °C	CCC[C@H](NC(=O)[C@@H](O)C(C)C)C(=O)Nc1ncc(-c2ccccc2COc2cccc(F)c2)s1 [compound 63, (2S)—N-(5-{2-[(3-fluorophenoxy)methyl]phenyl}-1,3-thiazol-2-yl)-2-{[(2S)-2-hydroxy-3-methylbutanoyl]amino}pentanamide]
170 °C	CCC[C@H](NC(=O)[C@@H](O)C(C)(C)C)C(=O)Nc1ncc(-c2cc(C)ccc2COc2ccccc2)s1 [compound 64, (2S)-2-{[(2S)-2-hydroxy-3,3-dimethylbutanoyl]amino}-N-{5-[5-methyl-2-(phenoxymethyl)phenyl]-1,3-thiazol-2-yl}pentanamide]
135.5 °C	CCC[C@H](NC(=O)[C@@H](O)C(C)C)C(=O)Nc1ncc(-c2ccc(C)cc2COc2ccccc2)s1 [compound 65, (2S)-2-{[(2S)-2-hydroxy-3-methylbutanoyl]amino}-N-{5-[4-methyl-2-(phenoxymethyl)phenyl]-1,3-thiazol-2-yl}pentanamide]
104.8 °C	C[C@H](NC(=O)[C@@H](O)C(C)(C)C)C(=O)Nc1ncc(-c2ccccc2COC2CCCCC2)s1 [compound 66, (2S)—N-{(1S)-2-[(5-{2-[(cyclohexyloxy)methyl]phenyl}-1,3-thiazol-2-yl)amino]-1-methyl-2-oxoethyl}-2-hydroxy-3,3-dimethylbutanamide]
82 °C	CCC[C@H](NC(=O)[C@@H](O)C(C)(C)C)C(=O)Nc1ncc(-c2ccccc2COc2cc(C)ccc2Cl)s1 [compound 67, (2S)—N-(5-{2-[(2-chloro-5-methylphenoxy)methyl]phenyl}-1,3-thiazol-2-yl)-2-{[(2S)-2-hydroxy-3,3-dimethylbutanoyl]amino}pentanamide]
80.6 °C	CCC[C@H](NC(=O)[C@@H](O)C(C)(C)C)C(=O)Nc1ncc(-c2ccccc2COc2cccc(C)c2)s1 [compound 68, (2S)-2-{[(2S)-2-hydroxy-3,3-dimethylbutanoyl]amino}-N-(5-{2-[(3-methylphenoxy)methyl]phenyl}-1,3-thiazol-2-yl)pentanamide]
99 °C	CCC[C@H](NC(=O)[C@@H](O)C(C)(C)C)C(=O)Nc1ncc(-c2ccccc2COc2ccccc2C#N)s1 [compound 69, (2S)—N-(5-{2-[(2-cyanophenoxy)methyl]phenyl}-1,3-thiazol-2-yl)-2-{[(2S)-2-hydroxy-3,3-dimethylbutanoyl]amino}pentanamide]
85 °C	CCC[C@H](NC(=O)[C@@H](O)C(C)(C)C)C(=O)Nc1ncc(-c2ccccc2COc2cc(C)c(C)cc2Cl)s1 [compound 71, (2S)—N-(5-{2-[(2-chloro-4,5-dimethylphenoxy)methyl]phenyl}-1,3-thiazol-2-yl)-2-{[(2S)-2-hydroxy-3,3-dimethylbutanoyl]amino}pentanamide]
83.4 °C	CCC[C@H](NC(=O)[C@@H](O)C(C)(C)C)C(=O)Nc1ncc(-c2ccccc2COc2ccc(Cl)c(C)c2)s1 [compound 72, (2S)—N-(5-{2-[(4-chloro-3-methylphenoxy)methyl]phenyl}-1,3-thiazol-2-yl)-2-{[(2S)-2-hydroxy-3,3-dimethylbutanoyl]amino}pentanamide]
71.1 °C	CCC[C@H](NC(=O)[C@@H](O)C(C)(C)C)C(=O)Nc1ncc(-c2ccccc2COc2cccc(Cl)c2Cl)s1 [compound 73, (2S)—N-(5-{2-[(2,3-dichlorophenoxy)methyl]phenyl}-1,3-thiazol-2-yl)-2-{[(2S)-2-hydroxy-3,3-dimethylbutanoyl]amino}pentanamide]
82 °C	CCC[C@H](NC(=O)[C@@H](O)C(C)(C)C)C(=O)Nc1ncc(-c2ccccc2COc2cccc(F)c2F)s1 [compound 74, (2S)—N-(5-{2-[(2,3-difluorophenoxy)methyl]phenyl}-1,3-thiazol-2-yl)-2-{[(2S)-2-hydroxy-3,3-dimethylbutanoyl]amino}pentanamide]
